In publication PMC5597593, “Polyphenols journey through blood-brain barrier towards neuronal protection” (Scientific Reports, 2017):
Entries after “also recorded” stand apart in the source; their conditions may differ.

Columns and labels:
[1] = parameters: method as in PMID 25571923; conditions: human plasma samples; cited from earlier work
[2] = test system: HBMEC line; test: Endothelial transport across confluent HBMEC two chamber BBB model, LC-Orbitrap MS; format: in vitro ADME, human; conditions: for Endothelial transport (lower/(upper+lower) compartment): 5 μM in upper chamber, 2 h of incubation
Experimental: We used the well-validated confluent HBMEC two chamber BBB model[32] to investigate endothelium transport with metabolite quantification by Orbitrap LC-MS techniques. (Poly)phenol metabolites were added in the upper chamber and their putative transport through the BBB endothelium assessed after 2 h of incubation (Fig. 1a).
Human brain microvascular endothelial cell (HBMEC) line was used as a simplified and validated in vitro model of the BBB[32], [44], [45], [62]. This cell line was derived from primary cultures of HBMEC transfected with SV40 large T antigen. HBMEC line was cultured in RPMI 1640 medium (Sigma-Aldrich) supplemented with 10% fetal bovine serum (FBS - Biochrom AG), 10% NuSerum IV (BD Biosciences), 1% non-essential amino acids (NEAA - Biochrom AG), 1% minimal essential medium (MEM) vitamins (Biochrom AG), 1 mM sodium pyruvate (Biochrom AG), 2mM L-glutamine (Biochrom AG), and 1% antibiotic-antimycotic solution (Sigma-Aldrich). For immunostaining and cytoprotection studies, cells were seeded at a density of 8 × 10^4 cell/mL in 24-well and 96-well plates, respectively, and treated after 48 h in culture. For integrity and transport studies, cells were seeded on polyester transwell inserts (0.4 μm, Corning Costar Corp., USA) at a density of 8 × 10^4 cell/insert and treated after 8 days in culture. Inserts and plates were coated with rat-tail collagen-I (BD Biosciences, Erembodegem, Belgium) before seeding. All experiments were performed after monolayer formation.
HBMEC were plated in semi-permeable membranes (inserts) placed in cell culture wells. This two-chamber system, where the upper and lower chambers mimic the blood and brain compartments, respectively, and the confluent HBMEC monolayer represents the BBB. Transport assays were conducted in HBSS (Hank’s Balanced Salt Solution) with calcium and magnesium (Gibco), supplemented with 0.1% FBS. Confluent monolayers of HBMEC were incubated with 5 μM of each compound for 2 h, time described for compounds to interact and/or being transported across cells, [69]. […]. Monolayer integrity was ensured in all experiments as described. In the end, cell medium from upper and lower compartments were collected and frozen at −80 °C until analysis. Transport analysis were performed after sample deproteinization by LC-Orbitrap MS as described below.
To 1 mL of upper or lower compartment cell medium it was added: 139 µL of 50% formic acid, ascorbic acid (final concentration of 1 mM) and taxifolin as internal standard (final concentration of 9 µM). To precipitate proteins, 2.5 mL of ACN was added dropwise and samples were vortexed before centrifugation at 3200 g for 15 min. The supernatant was removed and dried under centrifugal evaporation (CentriVap Vaccum Concentrator, Labconco). Samples were dissolved in 5% ACN in 0.1% formic acid and immediately analyzed by LC-Orbitrap MS.
Samples were separated on an HPLC Accela 600 HPLC system (Thermo Scientific, Bremen, Germany) using a C18 Synergi Hydro RP18 column (Phenomenex, Macclesfield, UK) 4 μm particle size and dimensions 2 mm ID × 150 mm. […] Analysis was done on an LTQ OrbitrapTM XL hybrid mass spectrometer (Thermo Scientific, Bremen, Germany).
MS analysis was performed using data-dependent Nth order double play analysis comprising full scan mass range 80–2000 amu, 30 000 resolution, data-type centroid and data dependent MS/MS (60 s of exclusion duration) on the top three most intense ions detected above threshold automatically in the independent scan event. ESI settings were as follows: source voltage, 3.4 kV; capillary temperature was 275 °C with a sheath gas at 40 psi and auxiliary gas at 5 psi. MS data handling software (Xcalibur QualBrowser software, Thermo Electron Corp.) was used to search for predicted metabolites by their appropriate m/z value. All peaks were checked for m/z value and fragmentation products. […]

[3] = test system: NF-κB p65; test: NF-κB p65 phosphorylation (ser536) ratio in N9 microglia (western blot); format: cell-based, murine; conditions: N9 cells; pre-treatment before LPS; 15 to 60 min
Experimental: N9 microglial cells were plated into 6-well plates (5 × 10^5 cells mL^−1) and then pre-incubated with 5 µM of each (poly)phenol metabolite. After 6 h, medium was discarded and cells were washed once with phosphate buffer saline (PBS) prior to addition of fresh medium with 300 ng/mL lipopolysaccharide from Escherichia coli 055:B5 (LPS, Sigma–Aldrich). Pro-inflammatory mediators release to medium were quantified as described below.
NT2 aggregates and N9 protein samples western blot analysis was performed accordingly to[41]. Aggregates were lysed with TX-100 lysis buffer (50 mM Tris, 5 mM EDTA, 150 mM NaCl, 1% Triton X-100, pH 7.4) and N9 protein extraction was performed with RIPA buffer. Primary antibodies were incubated overnight at RT, followed by secondary antibodies (horseradish peroxidase-conjugated, ECL anti-mouse IgG, anti-rat IgG or anti-rabbit IgG; Pierce, Millipore and GE Healthcare), incubated for 2 h at room temperature. Anti-GAPDH antibody (Thermo Scientific) was used as loading control. Primary antibodies used for protein detection were: anti-βIII-Tubulin (Millipore), anti-GFAP (DAKO), and MitoProfile Total OXPHOS WB primary antibody cocktail (Abcam), anti-phospho-NF-κB p65 (ser536) antibody (Cell Signalling), anti-NF-κB p65 (C-20) (Santa Cruz Biotechnology), and anti-IκB-α (C-21) antibody (Santa Cruz Biotechnology). […]

[4] = test system: HBMEC line; test: Cytoprotection in HBMEC submitted to oxidative stress (H2O2); format: cell-based, human; conditions: pre-incubation 5 µM 24 h, then 300 µM H2O2 24 h
Experimental: HBMEC were incubated in the presence of H2O2 (Sigma-Aldrich). Briefly, 24 h after seeding, cells growth medium was removed and cells were pre-incubated for 24 h with 5 µM of each compound. After pre-incubation, media was replaced by new media containing 300 µM H2O2, for 24 h[71], [72]. In the end, medium was removed and cell viability was assessed using the CellTiter-Blue® Cell Viability Assay (Promega), according to the manufacturer’s instructions.

[5] = test system: 3D aggregates containing neurons and astrocytes (NT2); test: Neuroprotection in 3D co-cultures of neurons and astrocytes (t-BHP injury); format: cell-based, human; conditions: pre-incubation 5 µM 24 h, then 300 µM t-BHP, 48 h
Experimental: NTera-2/cl.D1 (NT2) cells, obtained from American Type Cell Culture Collection (ATCC), were differentiated in stirred suspension culture systems, as 3D aggregates, as previously described. A single cell suspension of undifferentiated NT2 cells was seeded in DMEM (Dulbeco Minimum Essential Media), 10% FBS, 1% P/S (all from Invitrogen), in a 125 mL spinner vessel equipped with ball impeller (Wheaton). After three days of aggregation, differentiation was induced by addition of 10 µM retinoic acid (Sigma-Aldrich), for three weeks, with a 50% medium exchange performed every 2–3 days. Following this period (from day 24 onwards), the medium was composed by DMEM, 5% FBS, 1% P/S. Stable 3D co-cultures of neurons and astrocytes were maintained up to day 50 of culture and applied in neuroprotection assays (from day 38 to day 50).
Cell viability was accessed before exposure to test compounds, before t-BHP lesion induction and 48 h after lesion induction by PrestoBlue® Cell Viability Reagent (Thermo Fisher Scientific), accordingly to manufacturer’s instructions. Idebenone (provided by Grupo Tecnimede) was used as positive control. Final cell viability was calculated as a percentage of cell viability before lesion induction.

[6] = test system: primary mouse cerebellar granule cells; test: Neuroprotection in cerebellar granule cells exposed to glutamate excitotoxicity; format: cell-based; conditions: pre-incubation 5 µM 24 h, then 100 µM glutamate 24 h
Experimental: Primary cultures of cerebellar granule cells were prepared according to the already described method. Cells were isolated from cerebella of 7d-old BALB-C mice and 0.5 × 10^6 cell/mL were cultured in Neurobasal Medium (Gibco) supplemented with 2% B-27 without antioxidants (Gibco) and 2% KCl (20 mM, Sigma-Aldrich), containing 0.25% L-glutamine (200 mM, Sigma-Aldrich) and 0.48% penicillin-streptomycin (P/S, 5000 U mL^−1, Gibco). Experiments were performed on 24-well plates with coverslips coated with 50 µg/mL poly-D-lysine (Sigma-Aldrich). 20 µM of cytosine arabinoside (Sigma-Aldrich) was added 48 h after inoculation to prevent glia cell proliferation. All the experiments were performed between days 7–11 in culture.
Physiological concentrations (5 µM) of the two most abundant metabolites were added to the cells at 7 d in culture. Cells were then incubated for 24 h and morphology was evaluated. At day 8 in culture, 100 µM of glutamate (Sigma-Aldrich) was added to the respective wells. Cells were incubated for another 24 h, morphology was evaluated and viability determined by fluorescence microscopy through Propidium Iodide (PI) and Hoechst 33342 staining, as previously described.

[7] = molecular target: T1, P-gp (Homo sapiens, UniProt P08183); test: P-gp functional assay, Rhodamine 123 accumulation in HBMEC; format: cell-based; conditions: 5 μM
T1 construct: endogenous in cells; host or cells: HBMEC line (human brain microvascular endothelial cells immortalised with SV40 large T antigen)
Experimental: Activity of each efflux transporter was determined by measuring cellular accumulation of respective substrate[65], [66], and results were expressed as fold-change compared to the respective control. […] The solution was quickly removed, HBMEC were washed three times with PBS and solubilized in 0.1 M NaOH. Substrate content was determined using a FLUOstar Omega fluorescent plate reader (BMG Labtechnologies, Ortenberg, Germany; for P-gp, excitation at 505 nm, emission at 534 nm; for MRP1, excitation at 495 nm, emission at 516 nm; for BCRP excitation at 503 nm, emission at 512 nm). […] Protein content was evaluated by the Bradford method[67] using Bio-Rad’s Protein Assay reagent (Bio-Rad).

[8] = test system: HBMEC; test: HBMEC metabolization: search for novel cellular metabolites by LC-Orbitrap MS; format: in vitro ADME, human; conditions: after addition of Pyr-sulf in upper compartment; compared with acetylcysteine-pyrogallol
Experimental: Search for novel compounds resulting from HBMEC metabolization was performed in the same samples using Xcalibur QualBrowser software using an in-house database of putative bioavailable (poly)phenol metabolites[30]. Putative ID of predicted metabolites was determined by exact mass, according to their appropriate m/z value.

[9] = test system: β-III tubulin; test: Western blot of neuronal marker in 3D aggregates; format: cell-based, human; conditions: pre-incubation with 5µM Pyr-sulf or 200nM Idebenone, normalized to GAPDH
Experimental: NT2 aggregates and N9 protein samples western blot analysis was performed accordingly to[41]. Aggregates were lysed with TX-100 lysis buffer (50 mM Tris, 5 mM EDTA, 150 mM NaCl, 1% Triton X-100, pH 7.4) and N9 protein extraction was performed with RIPA buffer. Primary antibodies were incubated overnight at RT, followed by secondary antibodies (horseradish peroxidase-conjugated, ECL anti-mouse IgG, anti-rat IgG or anti-rabbit IgG; Pierce, Millipore and GE Healthcare), incubated for 2 h at room temperature. Anti-GAPDH antibody (Thermo Scientific) was used as loading control. Primary antibodies used for protein detection were: anti-βIII-Tubulin (Millipore), anti-GFAP (DAKO), and MitoProfile Total OXPHOS WB primary antibody cocktail (Abcam), anti-phospho-NF-κB p65 (ser536) antibody (Cell Signalling), anti-NF-κB p65 (C-20) (Santa Cruz Biotechnology), and anti-IκB-α (C-21) antibody (Santa Cruz Biotechnology). Membranes were developed using Amersham ECL Prime Western Blotting Detection Reagent (GE Healthcare) and visualized using a ChemiDocTM XRS + System (BioRad).

T1 sequence (P08183 whole entry): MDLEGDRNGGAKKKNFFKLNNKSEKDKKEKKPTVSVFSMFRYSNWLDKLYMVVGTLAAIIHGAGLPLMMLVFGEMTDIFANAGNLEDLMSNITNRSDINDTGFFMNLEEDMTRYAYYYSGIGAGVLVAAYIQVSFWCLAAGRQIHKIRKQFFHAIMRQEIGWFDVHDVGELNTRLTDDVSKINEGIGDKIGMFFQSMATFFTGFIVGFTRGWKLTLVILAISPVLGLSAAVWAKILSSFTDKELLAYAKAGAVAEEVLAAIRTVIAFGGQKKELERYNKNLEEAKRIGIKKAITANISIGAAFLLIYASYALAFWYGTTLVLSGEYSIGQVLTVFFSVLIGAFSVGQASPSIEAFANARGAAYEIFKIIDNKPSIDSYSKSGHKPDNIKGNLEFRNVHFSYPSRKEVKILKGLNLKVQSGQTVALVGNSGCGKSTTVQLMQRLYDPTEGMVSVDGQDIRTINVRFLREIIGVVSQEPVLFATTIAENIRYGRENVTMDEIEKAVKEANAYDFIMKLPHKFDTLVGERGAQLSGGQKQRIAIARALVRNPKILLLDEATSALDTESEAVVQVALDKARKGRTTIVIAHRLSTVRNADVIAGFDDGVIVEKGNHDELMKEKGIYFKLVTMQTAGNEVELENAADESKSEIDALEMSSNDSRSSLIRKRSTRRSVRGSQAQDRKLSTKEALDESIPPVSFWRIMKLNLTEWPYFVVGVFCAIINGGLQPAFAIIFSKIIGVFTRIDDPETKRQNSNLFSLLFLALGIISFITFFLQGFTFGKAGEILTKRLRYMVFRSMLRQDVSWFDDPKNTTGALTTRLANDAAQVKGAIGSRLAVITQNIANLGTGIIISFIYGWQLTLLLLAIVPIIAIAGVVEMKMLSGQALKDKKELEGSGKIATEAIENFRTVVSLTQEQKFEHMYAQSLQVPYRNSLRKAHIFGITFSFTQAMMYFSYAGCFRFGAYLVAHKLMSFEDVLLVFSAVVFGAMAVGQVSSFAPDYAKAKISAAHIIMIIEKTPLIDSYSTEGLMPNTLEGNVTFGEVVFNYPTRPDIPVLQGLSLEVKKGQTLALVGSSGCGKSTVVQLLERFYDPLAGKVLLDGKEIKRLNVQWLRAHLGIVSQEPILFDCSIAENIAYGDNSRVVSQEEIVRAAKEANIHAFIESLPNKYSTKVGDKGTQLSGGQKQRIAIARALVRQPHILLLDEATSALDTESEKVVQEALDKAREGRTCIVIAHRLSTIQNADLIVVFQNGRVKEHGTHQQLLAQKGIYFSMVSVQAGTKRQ

Row | Compound | Cmax [1] [nM] | Endothelial transport (lower/(upper+lower) compartment) [2] | also measured
1 | 1-O-methylpyrogallol-O-sulfate [1-MePyr-sulf] | 2880 ± 1800 | less effectively transported | 
2 | COc1c(O)cccc1OS(=O)(=O)O [2-MePyr-sulf, 2-O-methylpyrogallol-1-O-sulfate] | 1970 ± 1000 | transported as effectively as Pyr-sulf | 
3 | Cc1ccc(OS(=O)(=O)O)c(O)c1 [4-MeCat-sulf, 4-Methylcatechol O-sulfate] | 640 ± 500 | more effectively transported than catechol-O-sulfate (Cat-sulf); also recorded: higher endothelial transport percentage | 
4 | COc1c(O)cc(C(=O)O)cc1O [4-MeGA, 4-O-methylgallic acid] | 300 ± 100 |  | 
5 | COc1c(O)cc(C(=O)O)cc1OS(=O)(=O)O [4-MeGA-sulf, 4-O-methylgallic acid-3-O-sulfate] | 2030 ± 1100 | increased BBB permeation compared with 4-methylgallic acid (4-MeGA) | 
6 | O=S(=O)(O)Oc1ccccc1O [Cat-sulf, Catechol-O-sulfate] | 12200 ± 5900 |  | Kinetics of NF-κB phosphorylated-p65/total p65 ratio [3]: unchanged; Cell viability of HBMEC after H2O2 injury [4]: improved cell viability; Cell viability of 3D aggregates after t-BHP-induced injury [5]: significant neuroprotection; Cell viability of cerebellar granule cells under glutamate-induced excitotoxicity [6]: improved cell viability; P-gp activity (Rhodamine 123 accumulation) in the presence of metabolite [7]: no statistically- significant alterations; Endothelial transport after treatment with BCRP specific inhibitor Ko 143 ([2]; 5 μM, 1 μM Ko 143, p < 0.05 relatively to No inhibitor): significant increase; Endothelial transport along time ([2]; 5 μM, 2, 6 and 24 h): significant increase in transport percentage
7 | N[C@@H](CCC(=O)N[C@@H](CSc1ccc(O)c(O)c1O)C(=O)NCC(=O)O)C(=O)O [Glutathionyl-pyrogallol] |  |  | Relative abundance (peak areas) of novel metabolite [8]: detected in higher amounts
8 | O=S(=O)(O)Oc1cccc(O)c1O [Pyr-1-sulf, Pyrogallol-1-O-sulfate] |  |  | Endothelial transport after 24 h ([2]; Pyr-sulf mixture 5 μM, 24 h incubation): no transport
9 | O=S(=O)(O)Oc1c(O)cccc1O [Pyr-2-sulf, Pyrogallol-2-O-sulfate] |  | detected only Pyr-2-sulf in the basolateral compartment | 
10 | COc1cc(C(=O)O)ccc1OS(=O)(=O)O [VA-sulf, Vanillic acid 4-O-sulfate] | 1340 ± 1300 |  | 
11 | COC1=C(OC)C(=O)C(CCCCCCCCCCO)=C(C)C1=O [idebenone] |  |  | β-III tubulin protein levels after t-BHP lesion [9]: increased β-III tubulin protein levels
